# Test results as given in patent US8273774B2, “Phenoxypyridinylamide compounds” (AstraZeneca AB, priority 2008, dated 2012).
# Target: recombinant Human Phosphodiesterase B2 (PDE4B2) (Homo sapiens, UniProt Q07343)
# Experiment: Human Phosphodiesterase B2 Radiometric Assay
# Format: biochemical
# Settings: 0.1 μg/mL recombinant PDE4B2; preincubated at 30 C for 30 min; [3H]cyclic AMP 8 nM, stopped after 20 min; yttrium silicate SPA beads; read-out: PDE4B2 pIC50 (converted)
# Procedure, shortened: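 Compounds preincubated 30 min at 30 C with 0.1 μg/mL recombinant PDE4B2 in 50 mM HEPES pH 7.5, 8.3 mM MgCl2, 1.7 mM EGTA, 0.01% Brij 35.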
# Chain of recombinant Human Phosphodiesterase B2 (PDE4B2) (Q07343 1-564 isoform Q07343-2): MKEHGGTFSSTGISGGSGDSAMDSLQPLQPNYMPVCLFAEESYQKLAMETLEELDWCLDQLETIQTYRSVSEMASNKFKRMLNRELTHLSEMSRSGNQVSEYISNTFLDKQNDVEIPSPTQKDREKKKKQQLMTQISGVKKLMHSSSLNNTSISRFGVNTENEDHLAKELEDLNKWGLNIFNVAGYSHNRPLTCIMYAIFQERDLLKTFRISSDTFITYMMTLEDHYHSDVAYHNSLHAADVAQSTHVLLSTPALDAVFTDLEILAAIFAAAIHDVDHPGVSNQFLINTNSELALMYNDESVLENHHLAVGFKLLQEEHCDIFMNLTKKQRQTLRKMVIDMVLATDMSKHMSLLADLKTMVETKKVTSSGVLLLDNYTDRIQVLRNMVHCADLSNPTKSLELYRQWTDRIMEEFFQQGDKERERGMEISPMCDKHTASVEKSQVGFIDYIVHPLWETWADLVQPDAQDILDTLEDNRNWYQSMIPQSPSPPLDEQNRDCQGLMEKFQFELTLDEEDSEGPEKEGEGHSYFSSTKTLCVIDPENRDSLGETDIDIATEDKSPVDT
row,IC50,Compound
1,0.02 nM,"Cc1cccc2nc(C(=O)N[C@H]3CC[C@@H](NC(=O)c4cc(F)cnc4Oc4cccc(-c5ccc(CN6CCCN(C)CC6)cc5CN5CCOCC5)c4)CC3)cn12 [Example 185, N-((1s,4s)-4-(5-Fluoro-2-(4′-((4-methyl-1,4-diazepan-1-yl)methyl)-2′-(morpholinomethyl)biphenyl-3-yloxy)nicotinamido)cyclohexyl)-5-methylimidazo[1,2-a]pyridine-2-carboxamide]"
2,0.0251 nM,"Cc1nc(C(=O)N[C@H]2CC[C@@H](NC(=O)c3cc(F)cnc3Oc3cccc(-c4ccc(O)cc4CN4CCOCC4)c3)CC2)cs1 [Example 34, N-((1s,4s)-4-(5-fluoro-2-(4′-hydroxy-2′-(morpholinomethyl)biphenyl-3-yloxy)nicotinamido)cyclohexyl)-2-methylthiazole-4-carboxamide]"
3,0.126 nM,"O=C(N[C@H]1CC[C@@H](NC(=O)c2cc(F)cnc2Oc2cccc(-c3ccc(CN4CCNCC4)cc3)c2)CC1)c1cn2c(n1)CCCC2 [Example 1, N-((1s,4s)-4-(5-fluoro-2-(4′-(piperazin-1-ylmethyl)biphenyl-3-yloxy)nicotinamido)cyclohexyl)-5,6,7,8-tetrahydroimidazo[1,2-a]pyridine-2-carboxamide]"
4,0.0501 nM,"Cc1nc(C(=O)N[C@H]2CC[C@@H](NC(=O)c3cc(F)cnc3Oc3cccc(-c4ccc(CN5CCCN(C)CC5)cc4)c3)CC2)cs1 [Example 60, N-((1s,4s)-4-(5-fluoro-2-(4′-((4-methyl-1,4-diazepan-1-yl)methyl)biphenyl-3-yloxy)nicotinamido)cyclohexyl)-2-methylthiazole-4-carboxamide]"
5,0.0251 nM,"Cc1nc(C(=O)N[C@H]2CC[C@@H](NC(=O)c3cc(F)cnc3Oc3cccc(-c4ccc(CCN5CCCN(C)CC5)cc4)c3)CC2)cs1 [Example 87, N-((1s,4s)-4-(5-fluoro-2-(4′-(2-(4-methyl-1,4-diazepan-1-yl)ethyl)biphenyl-3-yloxy)nicotinamido)cyclohexyl)-2-methylthiazole-4-carboxamide]"
6,0.316 nM,"O=C(N[C@H]1CC[C@@H](NC(=O)c2cc(F)cnc2Oc2cccc(-c3ccc(O)cc3CN3CCOCC3)c2)CC1)c1cccc(O)c1 [Example 32, 5-fluoro-2-(4′-hydroxy-2′-(morpholinomethyl)biphenyl-3-yloxy)-N-((1s,4s)-4-(3-hydroxybenzamido)cyclohexyl)nicotinamide]"
7,0.631 nM,"Cc1ncsc1C(=O)N[C@H]1CC[C@@H](NC(=O)c2cc(F)cnc2Oc2cccc(-c3ccc(O)cc3CN3CCOCC3)c2)CC1 [Example 33, N-((1s,4s)-4-(5-fluoro-2-(4′-hydroxy-2′-(morpholinomethyl)biphenyl-3-yloxy)nicotinamido)cyclohexyl)-4-methylthiazole-5-carboxamide]"
8,0.0794 nM,"Cc1cccc(C(=O)N[C@H]2CC[C@@H](NC(=O)c3cc(F)cnc3Oc3cccc(-c4ccc(O)c(CN5C[C@@H](C)N[C@@H](C)C5)c4)c3)CC2)n1 [Example 89, N-((1s,4s)-4-(2-(3′-(((3S,5R)-3,5-dimethylpiperazin-1-yl)methyl)-4′-hydroxybiphenyl-3-yloxy)-5-fluoronicotinamido)cyclohexyl)-6-methylpicolinamide]"
9,0.158 nM,"C[C@@H]1CN(Cc2cc(-c3cccc(Oc4ncc(F)cc4C(=O)N[C@H]4CC[C@@H](NC(=O)c5cn6cc(F)ccc6n5)CC4)c3)ccc2O)C[C@H](C)N1 [Example 84, N-((1s,4s)-4-(2-(3′-(((3S,5R)-3,5-dimethylpiperazin-1-yl)methyl)-4′-hydroxybiphenyl-3-yloxy)-5-fluoronicotinamido)cyclohexyl)-6-fluoroimidazo[1,2-a]pyridine-2-carboxamide]"

# More lines, now with the values behind:
row,Compound,IC50
1,"Cc1cc(C(=O)N[C@H]2CC[C@@H](NC(=O)c3cc(F)cnc3Oc3cccc(-c4ccc(CCCN5C[C@@H](C)N[C@@H](C)C5)cc4)c3)CC2)nn1C [Example 81, N-((1s,4s)-4-(1,5-dimethyl-1H-pyrazole-3-carboxamido)cyclohexyl)-2-(4′-(3-((3S,5R)-3,5-dimethylpiperazin-1-yl)propyl)biphenyl-3-yloxy)-5-fluoronicotinamide]",0.0316 nM
2,"CN(C)Cc1cc(O)ccc1-c1cccc(Oc2ncc(F)cc2C(=O)N[C@H]2CC[C@@H](NC(=O)c3nc4ccccc4s3)CC2)c1 [Example 44, N-((1s,4s)-4-(2-(2′-((dimethylamino)methyl)-4′-hydroxybiphenyl-3-yloxy)-5-fluoronicotinamido)cyclohexyl)benzo[d]thiazole-2-carboxamide]",0.1 nM
3,"Cc1cccc(C(=O)N[C@H]2CC[C@@H](NC(=O)c3cc(F)cnc3Oc3cccc(-c4ccc(CCCNCCCO)cc4)c3)CC2)n1 [Example 158, N-((1s,4s)-4-(5-Fluoro-2-(4′-(3-(3-hydroxypropylamino)propyl)biphenyl-3-yloxy)nicotinamido)cyclohexyl)-6-methylpicolinamide]",0.0316 nM
4,"C[C@@H]1CN(Cc2ccc(-c3cccc(Oc4ncc(F)cc4C(=O)N[C@H]4CC[C@@H](NC(=O)c5csc(CO)n5)CC4)c3)cc2)C[C@H](C)N1 [Example 70, N-((1s,4s)-4-(2-(4′-(((3S,5R)-3,5-dimethylpiperazin-1-yl)methyl)biphenyl-3-yloxy)-5-fluoronicotinamido)cyclohexyl)-2-(hydroxymethyl)thiazole-4-carboxamide]",0.0794 nM
5,"Cn1nc(C(=O)N[C@H]2CC[C@@H](NC(=O)c3cc(F)cnc3Oc3cccc(-c4ccc(CCN5CCNCC5)cc4)c3)CC2)cc1C(F)(F)F [Example 176, 5-Fluoro-N-((1s,4s)-4-(1-methyl-5-(trifluoromethyl)-1H-pyrazole-3-carboxamido)cyclohexyl)-2-(4′-(2-(piperazin-1-yl)ethyl)biphenyl-3-yloxy)nicotinamide]",0.0501 nM
6,"CN(C)Cc1cc(O)ccc1-c1cccc(Oc2ncc(F)cc2C(=O)N[C@H]2CC[C@@H](NC(=O)c3csc(C(C)(C)C)n3)CC2)c1 [Example 43, 2-tert-butyl-N-((1s,4s)-4-(2-(2′-((dimethylamino)methyl)-4′-hydroxybiphenyl-3-yloxy)-5-fluoronicotinamido)cyclohexyl)thiazole-4-carboxamide]",0.126 nM
7,"C[C@@H]1CN(Cc2cccc(-c3cccc(Oc4ncc(F)cc4C(=O)N[C@H]4CC[C@@H](NC(=O)c5cc6ccccn6n5)CC4)c3)c2)C[C@H](C)N1 [Example 151, N-((1s,4s)-4-(2-(3′-(((3S,5R)-3,5-dimethylpiperazin-1-yl)methyl)biphenyl-3-yloxy)-5-fluoronicotinamido)cyclohexyl)pyrazolo[1,5-a]pyridine-2-carboxamide]",0.0631 nM
8,"Cc1cc(C(=O)N[C@H]2CC[C@@H](NC(=O)c3cc(F)cnc3Oc3cccc(-c4cccc(CN5C[C@@H](C)N[C@@H](C)C5)c4Cl)c3)CC2)nn1C [Example 107, 2-(2′-chloro-3′-(((3S,5R)-3,5-dimethylpiperazin-1-yl)methyl)biphenyl-3-yloxy)-N-((1s,4s)-4-(1,5-dimethyl-1H-pyrazole-3-carboxamido)cyclohexyl)-5-fluoronicotinamide]",0.158 nM
9,"Cc1nc(C(=O)N[C@H]2CC[C@@H](NC(=O)c3cc(F)cnc3Oc3cccc(-c4ccc(CCCN5CCNCC5)cc4)c3)CC2)cs1 [Example 74, N-((1s,4s)-4-(5-fluoro-2-(4′-(3-(piperazin-1-yl)propyl)biphenyl-3-yloxy)nicotinamido)cyclohexyl)-2-methylthiazole-4-carboxamide]",0.0251 nM
